Measured values published in US10138255B2, “Piperazine derivatives as HIV protease inhibitors” (Merck Sharp & Dohme Corp., priority 2014, dated 2018).

What follows are compounds tested on HIV-1 (H9IIIB strain) (assay: Cell-Based HIV Infection Assay Using a Reporter (MT4-GFP cells)). Conditions: Human immunodeficiency virus 1, inflection point (IP) of viral growth inhibition; MT4-GFP cells infected with HIV-1 H9IIIB; 50% normal human serum; mean of at least two independent experiments; read-out: Cell Based IP (50% NHS).
Summary of the method: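 MT4-GFP cells (HIV LTR-driven GFP) bulk-infected with HIV-1 H9IIIB at low MOI for 24 h, washed, then exposed to compounds in RPMI plus 50% normal human serum, 0.4% DMSO. Infected cells counted at 24 and 48 h; R0 = 48 h/24 h ratio, inhibition normalised to DMSO and triple-drug control; IP from 4-parameter fit.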

Compound | EC50
COC(=O)N[C@@H](C(=O)N[C@H]1CCC[C@@H]1CC[C@H]1CN[C@@H]2CCCS(=O)(=O)N1C2)[C@@H](c1ccc(Cl)cc1)C1CCN(C(=O)OCc2ccccc2)CC1 [Example 137, benzyl 4-{(1R,2R)-1-(4-chlorophenyl)-3-{[(1S,2R)-2-{2-[(6R,9S)-2,2-dioxido-2-thia-1,7-diazabicyclo[4.3.1]dec-9-yl]ethyl}cyclopentyl]amino}-2-[(methoxycarbonyl)amino]-3-oxopropyl}piperidine-1-carboxylate] | 1300 nM
COC(=O)N[C@@H](C(=O)N[C@H]1CCC[C@@H]1CC[C@H]1CN[C@@H]2CCCS(=O)(=O)N1C2)[C@@H](c1ccc(Cl)cc1)C1CCN(C(=O)OC2(C)CC2)CC1 [Example 138, 1-methylcyclopropyl 4-{(1R,2R)-1-(4-chlorophenyl)-3-{[(1S,2R)-2-{2-[(6R,9S)-2,2-dioxido-2-thia-1,7-diazabicyclo[4.3.1]dec-9-yl]ethyl}cyclopentyl]amino}-2-[(methoxycarbonyl)amino]-3-oxopropyl}piperidine-1-carboxylate] | 490 nM
N[C@H](C(=O)Nc1cc(F)cc(F)c1CC[C@H]1CN[C@@H]2CCCS(=O)(=O)N1C2)[C@@H](c1ccc(Cl)cc1)C1CCOCC1 [Example 143, (βR)-4-chloro-N-(2-{2-[(6R,9S)-2,2-dioxido-2-thia-1,7-diazabicyclo[4.3.1]dec-9-yl]ethyl}-3,5-difluorophenyl)-β-(tetrahydro-2H-pyran-4-yl)-L-phenylalaninamide] | 77 nM
COC(=O)N[C@H](C(=O)Nc1cc(F)cc(F)c1CC[C@H]1CN[C@@H]2CCCS(=O)(=O)N1C2)[C@@H](c1ccc(Cl)cc1)C1CCOCC1 [Example 144, methyl [(1S,2R)-2-(4-chlorophenyl)-1-[(2-{2-[(6R,9S)-2,2-dioxido-2-thia-1,7-diazabicyclo[4.3.1]dec-9-yl]ethyl}-3,5-difluorophenyl)carbamoyl]-2-(tetrahydro-2H-pyran-4-yl)ethyl]carbamate] | 21 nM
N[C@H](C(=O)N[C@H]1CCCC[C@@H]1CC[C@H]1CN[C@@H]2CCCS(=O)(=O)N1C2)[C@H](c1cncc(F)c1)c1ccc(Cl)c(F)c1 [Example 145, (βS)-4-chloro-N-[(1S,2R)-2-{2-[(6R,9S)-2,2-dioxido-2-thia-1,7-diazabicyclo[4.3.1]dec-9-yl]ethyl}cyclohexyl]-3-fluoro-β-(5-fluoropyridin-3-yl)-L-phenylalaninamide] | 76 nM
C[C@@H]1C[C@H]([C@H](c2ccc(F)cc2)[C@H](N)C(=O)Nc2c(F)ccc(F)c2CC[C@H]2CN[C@@H]3CCCS(=O)(=O)N2C3)C[C@H](C)O1 [Example 146, (βR)-β-[(2R,4r,6S)-2,6-dimethyltetrahydro-2H-pyran-4-yl]-N-(2-{2-[(6R,9S)-2,2-dioxido-2-thia-1,7-diazabicyclo[4.3.1]dec-9-yl]ethyl}-3,6-difluorophenyl)-4-fluoro-L-phenylalaninamide] | 25 nM
COC(=O)N[C@H](C(=O)Nc1c(F)ccc(F)c1CC[C@H]1CN[C@@H]2CCCS(=O)(=O)N1C2)[C@@H](c1ccc(F)cc1)[C@H]1C[C@@H](C)O[C@@H](C)C1 [Example 147, methyl [(1S,2R)-2-[(2R,4r,6S)-2,6-dimethyltetrahydro-2H-pyran-4-yl]-1-[(2-{2-[(6R,9S)-2,2-dioxido-2-thia-1,7-diazabicyclo[4.3.1]dec-9-yl]ethyl}-3,6-difluorophenyl)carbamoyl]-2-(4-fluorophenyl)ethyl]carbamate] | 22 nM
CC1(C)C[C@@H]([C@H](c2ccc(F)cc2)[C@H](N)C(=O)N[C@H]2CCCC[C@@H]2CC[C@H]2CN[C@@H]3CCCS(=O)(=O)N2C3)CCO1 [Example 148, (βR)-β-[(4S)-2,2-dimethyhetrahydro-2H-pyran-4-yl]-N-[(1S,2R)-2-{2-[(6R,9S)-2,2-dioxido-2-thia-1,7-diazabicyclo[4.3.1]dec-9-yl]ethyl}cyclohexyl]-4-fluoro-L-phenylalaninamide] | 160 nM
C[C@@H]1C[C@H]([C@H](c2ccc(F)cc2)[C@H](N)C(=O)N[C@H]2CCCC[C@@H]2CC[C@H]2CN[C@@H]3CCCS(=O)(=O)N2C3)C[C@H](C)O1 [Example 149, (βR)-β-[(2R,4r,6S)-2,6-dimelhyltclrahydro-2H-pyran-4-yl]-N-[(1S,2R)-2-{2-[(6R,9S)-2,2-dioxido-2-thia-1,7-diazabicyclo[4.3.1]dec-9-yl]ethyl}cyclohexyl]-4-fluoro-L-phenylalaninamide] | 97 nM
N[C@H](C(=O)N[C@H]1CCCC[C@@H]1CC[C@H]1CN[C@@H]2CCCS(=O)(=O)N1C2)[C@H](c1cncc(C(F)(F)F)c1)c1ccc(Cl)c(F)c1 [Example 150] | 22 nM
N[C@H](C(=O)Nc1cccc(F)c1CCC1CNC2CCCS(=O)(=O)N1C2)[C@H](CCC1CCCCO1)c1ccc(Cl)cc1 (stereo partly drawn) [Example 151, (βR)-4-chloro-N-{2-[2-(2,2-dioxido-2-thia-1,7-diazabicyclo[4.3.1]dec-9-yl)ethyl]-3-fluorophenyl}-β-[2-(tetrahydro-2H-pyran-2-yl)ethyl]-L-phenylalaninamide] | 23 nM
COC(=O)N[C@H](C(=O)Nc1cccc(F)c1CCC1CNC2CCCS(=O)(=O)N1C2)[C@H](CCC1CCCCO1)c1ccc(Cl)cc1 (stereo partly drawn) [Example 153, methyl [(1S,2R)-2-(4-chlorophenyl)-1-({2-[2-(2,2-dioxido-2-thia-1,7-diazabicyclo[4.3.1]dec-9-yl)ethyl]-3-fluorophenyl}carbamoyl)-4-(tetrahydro-2H-pyran-2-yl)butyl]carbamate] | 9.7 nM
COc1ccc([C@H](c2ccc(Cl)cc2)[C@H](N)C(=O)N[C@H]2CCCC[C@@H]2CC[C@H]2CN[C@@H]3CCCS(=O)(=O)N2C3)cn1 [Example 155, (βS)-4-chloro-N-[(1S,2R)-2-{2-[(6R,9S)-2,2-dioxido-2-thia-1,7-diazabicyclo[4.3.1]dec-9-yl]ethyl}cyclohexyl]-β-(6-methoxypyridin-3-yl)-L-phenylalaninamide] | 600 nM
N[C@H](C(=O)N[C@H]1CCCC[C@@H]1CC[C@H]1CN[C@@H]2CCCS(=O)(=O)N1C2)[C@@H](c1ccc(F)cc1)C1CCOCC1 [Example 156, (βR)-N-[(1S,2R)-2-{2-[(6R,9S)-2,2-dioxido-2-thia-1,7-diazabicyclo[4.3.1]dec-9-yl]ethyl}cyclohexyl]-4-fluoro-β-(tetrahydro-2H-pyran-4-yl)-L-phenylalaninamide] | 200 nM
N[C@H](C(=O)N[C@H]1CCC[C@@H]1CC[C@H]1CN[C@@H]2CCCS(=O)(=O)N1C2)[C@@H](c1ccc(Cl)cc1)C1CCS(=O)(=O)CC1 [Example 157, (βR)-4-chloro-β-(1,1-dioxidotetrahydro-2H-thiopyran-4-yl)-N-[(1S,2R)-2-{2-[(6R,9S)-2,2-dioxido-2-thia-1,7-diazabicyclo[4.3.1]dec-9-yl]ethyl}cyclopentyl]-L-phenylalaninamide] | 3400 nM
N[C@H](C(=O)Nc1cccc(F)c1CC[C@H]1CNC2CCCS(=O)(=O)N1C2)[C@@H](c1ccc(Cl)cc1)C1CCS(=O)(=O)CC1 (stereo partly drawn) [Example 158, (βR)-4-chloro-β-(1,1-dioxidotetrahydro-2H-thiopyran-4-yl)-N-(2-{2-[(9S)-2,2-dioxido-2-thia-1,7-diazabicyclo[4.3.1]dec-9-yl]ethyl}-3-fluorophenyl)-L-phenylalaninamide] | 110 nM
COC(=O)N[C@H](C(=O)Nc1cccc(F)c1CC[C@H]1CNC2CCCS(=O)(=O)N1C2)[C@@H](c1ccc(Cl)cc1)C1CCS(=O)(=O)CC1 (stereo partly drawn) [Example 159, methyl {(1S,2R)-2-(4-chlorophenyl)-2-(1,1-dioxidotetrahydro-2H-thiopyran-4-yl)-1-[(2-{2-[(9S)-2,2-dioxido-2-thia-1,7-diazabicyclo[4.3.1]dec-9-yl]ethyl}-3-fluorophenyl)carbamoyl]ethyl}carbamate] | 720 nM
N[C@H](C(=O)N[C@H]1CCCC[C@@H]1CC[C@H]1CN[C@@H]2CCCS(=O)(=O)N1C2)[C@@H](c1ccc(Cl)cc1)c1cc(F)cc(F)c1 [Example 160, (βS)-β-(4-chlorophenyl)-N-[(1S,2R)-2-{2-[(6R,9S)-2,2-dioxido-2-thia-1,7-diazabicyclo[4.3.1]dec-9-yl]ethyl}cyclohexyl]-3,5-difluoro-L-phenylalaninamide] | 22 nM
CC(C)[C@H](c1ccc(Cl)cc1)[C@H](N)C(=O)N[C@H]1CCCC[C@@H]1CC[C@H]1CN[C@@H]2CCCS(=O)(=O)N1C2 [Example 161, (βR)-4-chloro-N-[(1S,2R)-2-{2-[(6R,9S)-2,2-dioxido-2-thia-1,7-diazabicyclo[4.3.1]dec-9-yl]ethyl}cyclohexyl]-β-(1-methylethyl)-L-phenylalaninamide] | 78 nM
C[C@@H]1CC([C@H](c2ccc(Cl)cc2)[C@H](N)C(=O)N[C@H]2CCCC[C@@H]2CC[C@H]2CN[C@@H]3CCCS(=O)(=O)N2C3)C[C@H](C)O1 (stereo partly drawn) [Example 162, (βR)-4-chloro-β-[(2R,6S)-2,6-dimethyltetrahydro-2H-pyran-4-yl]-N-[(1S,2R)-2-{2-[(6R,9S)-2,2-dioxido-2-thia-1,7-diazabicyclo[4.3.1]dec-9-yl]ethyl}cyclohexyl]-L-phenylalaninamide] | 37 nM
N[C@H](C(=O)Nc1cccc(F)c1CCC1CNC2CCCS(=O)(=O)N1C2)[C@@H](c1ccc(Cl)cc1)C1CCOC(CC(F)(F)F)C1 (stereo partly drawn) [Example 163, (βR)-4-chloro-N-{2-[2-(2,2-dioxido-2-thia-1,7-diazabicyclo[4.3.1]dec-9-yl)ethyl]-3-fluorophenyl}-β-[2-(2,2,2-trifluoroethyl)telrahydro-2H-pyran-4-yl]-L-phenylalaninamide] | 19 nM
C[C@@H]1CC([C@H](c2ccc(Cl)c(F)c2)[C@H](N)C(=O)Nc2cccc(F)c2CC[C@H]2CN[C@@H]3CCCS(=O)(=O)N2C3)C[C@H](C)O1 (stereo partly drawn) [Example 165, (βR)-4-chloro-β-[(2R,6S)-2,6-dimethyltetrahydro-2H-pyran-4-yl]-N-(2-{2-[(6R,9S)-2,2-dioxido-2-thia-1,7-diazabicyclo[4.3.1]dec-9-yl]ethyl}-3-fluorophenyl)-3-fluoro-L-phenylalaninamide] | 7.5 nM
